# Reference: patent publication US10653659B2, “Compositions comprising a compound from the family of avermectins and an agonist compound for at least one of the retinoic acid receptors for treating acne” (GALDERMA SA, priority 2014, dated 2020)
# Values joined by “and” are separate entries in the source; they are usually repeats but may differ in a detail not shown here. Equal entries are not always repeated.
# Test system: patients with acne
# Assay: Comparative clinical study among patients with acne
# Format: in vivo, human
# Conditions: Treatment A (first treatment, retinoids without ivermectin); scale from 0 to 5; one acne patient per line; duration varies per patient
# Experimental: A comparative study was carried out among patients with acne. […] These same patients then received a second treatment (Treatment B) containing ivermectin and were followed over several months.
# By way of example, mention may be made of: Differin 0.3%®, Epiduo®, Metrogel® and Epiduo Forte® marketed by Galderma Laboratories, Accutane® from Roche Laboratories, and Ziana® from Medicis Pharmaceutical Corp.
row,SMILES,Satisfaction score
1,"CC1=C(/C=C/C(C)=C/C=C/C(C)=C/C(=O)O)C(C)(C)CCC1 [tretinoin 0.05%, tretinoin]",0
2,"COc1ccc(-c2ccc3cc(C(=O)O)ccc3c2)cc1C12CC3CC(CC(C3)C1)C2 [adapalene 0.3%, 6-[3-(1-adamantyl)-4-methoxyphenyl]-2-naphthoic acid]",1 and 0
3,"CC1=C(/C=C/C(C)=C/C=C/C(C)=C/CO)C(C)(C)CCC1 [retinol 0.05%, retinol]",0
